The results in this text go back to paper PMC5084695 (Biochemistry, 2016).

Assay [1] concerns the target SbnA (Staphylococcus aureus, UniProt A6QDA0, S185G). Briefly: biochemical.
Assay [2] has as its target SbnA (Staphylococcus aureus, UniProt A6QDA0, S185G/Y152F). Briefly: biochemical.
Assay [3] deals with SbnA (Staphylococcus aureus, UniProt A6QDA0). The assay can be described thus: coupled inorganic phosphate release assay. The class given is biochemical.

`N[C@@H](CS)C(=O)O` [L-cysteine]: the Ki is 2100 ± 500 µM on SbnA [1] and 91 ± 16 µM on SbnA [3]. Binding at SbnA [2] was characterised by a dissociation constant (Kd) of 8900 ± 3200 µM.
